Laboratory results published in ChEMBL document CHEMBL5375979, “Chemical, Biochemical, Cellular, and Physiological Characterization of Leucettinib-21, a Down Syndrome and Alzheimer's Disease Drug Candidate” (J Med Chem, 2023).

Key:
[1] = molecular target: Dual specificity protein kinase CLK1 (Homo sapiens, UniProt P49759)
[2] = molecular target: Dual specificity protein kinase CLK4 (Homo sapiens, UniProt Q9HAZ1)
[3] = molecular target: Dual specificity tyrosine-phosphorylation-regulated kinase 1A (Homo sapiens, UniProt Q13627)
[4] = molecular target: Dual specificity tyrosine-phosphorylation-regulated kinase 1B (Homo sapiens, UniProt Q9Y463)
Dual specificity tyrosine-phosphorylation-regulated kinase 1B, sequence (Q9Y463 whole entry): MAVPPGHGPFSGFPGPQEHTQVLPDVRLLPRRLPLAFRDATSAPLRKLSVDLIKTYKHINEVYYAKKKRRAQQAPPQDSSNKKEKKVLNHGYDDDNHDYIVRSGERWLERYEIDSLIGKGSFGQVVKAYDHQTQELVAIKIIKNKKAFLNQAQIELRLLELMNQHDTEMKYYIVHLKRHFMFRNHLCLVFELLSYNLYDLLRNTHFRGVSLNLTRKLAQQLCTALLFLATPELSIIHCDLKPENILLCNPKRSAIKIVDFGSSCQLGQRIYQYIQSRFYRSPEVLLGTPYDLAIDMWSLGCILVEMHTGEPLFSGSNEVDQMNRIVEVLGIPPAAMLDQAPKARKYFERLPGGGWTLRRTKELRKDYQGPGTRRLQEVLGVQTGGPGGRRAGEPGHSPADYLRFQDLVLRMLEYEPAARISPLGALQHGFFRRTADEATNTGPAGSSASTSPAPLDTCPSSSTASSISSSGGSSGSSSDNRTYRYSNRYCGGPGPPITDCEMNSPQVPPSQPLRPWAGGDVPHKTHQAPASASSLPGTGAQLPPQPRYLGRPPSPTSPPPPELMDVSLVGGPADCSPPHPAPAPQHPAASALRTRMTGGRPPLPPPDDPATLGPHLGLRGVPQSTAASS

[5] = molecular target: Cyclin-dependent kinase 5 (Homo sapiens, UniProt Q00535)
Cyclin-dependent kinase 5, sequence (Q00535 whole entry): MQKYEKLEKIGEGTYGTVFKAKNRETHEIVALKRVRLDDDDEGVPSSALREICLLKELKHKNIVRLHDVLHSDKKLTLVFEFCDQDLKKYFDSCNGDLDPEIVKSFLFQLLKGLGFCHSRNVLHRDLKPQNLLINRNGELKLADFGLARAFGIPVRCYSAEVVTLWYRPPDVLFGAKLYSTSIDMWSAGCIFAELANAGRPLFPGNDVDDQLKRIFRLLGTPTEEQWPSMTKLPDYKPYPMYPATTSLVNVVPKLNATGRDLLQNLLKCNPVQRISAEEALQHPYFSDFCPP

[6] = molecular target: Casein kinase I; format: protein assay, Homo sapiens
[7] = molecular target: Dual specificity protein kinase CLK3 (Homo sapiens, UniProt P49761)
Dual specificity protein kinase CLK3, sequence (P49761 whole entry): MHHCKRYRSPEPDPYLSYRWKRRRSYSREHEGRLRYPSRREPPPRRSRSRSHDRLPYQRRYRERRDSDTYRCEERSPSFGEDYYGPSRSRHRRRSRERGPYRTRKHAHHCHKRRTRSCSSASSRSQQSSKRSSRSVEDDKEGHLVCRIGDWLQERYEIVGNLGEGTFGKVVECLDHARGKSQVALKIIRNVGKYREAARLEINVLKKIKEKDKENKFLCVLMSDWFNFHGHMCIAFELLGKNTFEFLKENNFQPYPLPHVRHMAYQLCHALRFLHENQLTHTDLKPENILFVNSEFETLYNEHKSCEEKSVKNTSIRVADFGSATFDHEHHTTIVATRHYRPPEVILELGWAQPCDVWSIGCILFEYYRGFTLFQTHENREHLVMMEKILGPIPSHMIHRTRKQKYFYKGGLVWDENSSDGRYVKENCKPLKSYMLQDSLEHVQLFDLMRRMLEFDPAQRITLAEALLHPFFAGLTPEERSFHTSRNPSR

[8] = molecular target: T1, Dual specificity tyrosine-phosphorylation-regulated kinase 2 (Homo sapiens, UniProt Q92630)
T1 sequence (Q92630 whole entry): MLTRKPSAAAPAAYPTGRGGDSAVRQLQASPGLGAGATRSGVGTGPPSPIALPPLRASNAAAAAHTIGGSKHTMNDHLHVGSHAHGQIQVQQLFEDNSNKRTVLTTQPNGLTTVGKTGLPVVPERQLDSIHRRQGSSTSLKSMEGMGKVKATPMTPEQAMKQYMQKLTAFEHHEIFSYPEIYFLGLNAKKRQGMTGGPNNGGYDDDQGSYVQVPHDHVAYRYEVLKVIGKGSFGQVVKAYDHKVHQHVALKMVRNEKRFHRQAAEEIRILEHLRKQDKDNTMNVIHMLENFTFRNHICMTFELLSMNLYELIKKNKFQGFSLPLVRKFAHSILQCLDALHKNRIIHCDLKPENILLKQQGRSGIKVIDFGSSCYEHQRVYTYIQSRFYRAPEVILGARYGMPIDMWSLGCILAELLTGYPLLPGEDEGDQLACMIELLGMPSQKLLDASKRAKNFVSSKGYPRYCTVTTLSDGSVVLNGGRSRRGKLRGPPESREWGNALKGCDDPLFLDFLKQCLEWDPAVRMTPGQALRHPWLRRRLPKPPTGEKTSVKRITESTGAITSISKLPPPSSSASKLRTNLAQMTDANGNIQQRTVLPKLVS

[9] = molecular target: T2, Dual specificity tyrosine-phosphorylation-regulated kinase 3 (Homo sapiens, UniProt O43781)
T2 sequence (O43781 whole entry): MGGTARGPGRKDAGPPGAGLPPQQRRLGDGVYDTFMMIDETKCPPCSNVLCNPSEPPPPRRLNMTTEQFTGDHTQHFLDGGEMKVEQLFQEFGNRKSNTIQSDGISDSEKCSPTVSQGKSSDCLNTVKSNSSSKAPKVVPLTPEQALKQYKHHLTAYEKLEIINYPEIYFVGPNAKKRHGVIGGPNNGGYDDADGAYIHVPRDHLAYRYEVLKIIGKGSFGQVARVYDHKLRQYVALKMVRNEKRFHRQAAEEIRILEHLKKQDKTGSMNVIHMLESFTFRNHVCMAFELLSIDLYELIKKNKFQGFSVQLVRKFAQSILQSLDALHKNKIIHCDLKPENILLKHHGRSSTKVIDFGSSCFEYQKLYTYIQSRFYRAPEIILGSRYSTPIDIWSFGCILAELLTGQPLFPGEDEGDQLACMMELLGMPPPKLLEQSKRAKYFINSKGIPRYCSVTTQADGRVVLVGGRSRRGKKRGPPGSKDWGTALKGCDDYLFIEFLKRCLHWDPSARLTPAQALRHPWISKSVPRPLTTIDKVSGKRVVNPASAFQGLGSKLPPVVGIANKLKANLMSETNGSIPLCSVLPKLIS

[10] = molecular target: T3, Dual specificity tyrosine-phosphorylation-regulated kinase 4 (Homo sapiens, UniProt Q9NR20)
T3 sequence (Q9NR20 whole entry): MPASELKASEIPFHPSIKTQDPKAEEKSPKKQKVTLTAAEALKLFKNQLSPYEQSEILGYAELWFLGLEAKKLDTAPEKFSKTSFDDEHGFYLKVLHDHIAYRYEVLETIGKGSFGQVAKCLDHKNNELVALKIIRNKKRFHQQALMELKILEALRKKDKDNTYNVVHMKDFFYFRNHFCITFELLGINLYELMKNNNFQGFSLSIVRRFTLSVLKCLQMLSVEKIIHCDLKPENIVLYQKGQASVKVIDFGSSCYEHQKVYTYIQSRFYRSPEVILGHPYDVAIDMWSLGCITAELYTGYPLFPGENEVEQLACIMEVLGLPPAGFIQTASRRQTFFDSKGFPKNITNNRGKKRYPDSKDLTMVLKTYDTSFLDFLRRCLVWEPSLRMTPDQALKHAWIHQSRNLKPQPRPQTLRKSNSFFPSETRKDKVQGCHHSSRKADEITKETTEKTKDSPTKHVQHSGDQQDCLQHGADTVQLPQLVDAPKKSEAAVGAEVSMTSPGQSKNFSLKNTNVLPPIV

[11] = molecular target: Glycogen synthase kinase-3 (Homo sapiens, UniProt P49840+P49841); format: protein assay
[12] = molecular target: Dual specificity protein kinase CLK2 (Homo sapiens, UniProt P49760)
Dual specificity protein kinase CLK2, sequence (P49760 whole entry): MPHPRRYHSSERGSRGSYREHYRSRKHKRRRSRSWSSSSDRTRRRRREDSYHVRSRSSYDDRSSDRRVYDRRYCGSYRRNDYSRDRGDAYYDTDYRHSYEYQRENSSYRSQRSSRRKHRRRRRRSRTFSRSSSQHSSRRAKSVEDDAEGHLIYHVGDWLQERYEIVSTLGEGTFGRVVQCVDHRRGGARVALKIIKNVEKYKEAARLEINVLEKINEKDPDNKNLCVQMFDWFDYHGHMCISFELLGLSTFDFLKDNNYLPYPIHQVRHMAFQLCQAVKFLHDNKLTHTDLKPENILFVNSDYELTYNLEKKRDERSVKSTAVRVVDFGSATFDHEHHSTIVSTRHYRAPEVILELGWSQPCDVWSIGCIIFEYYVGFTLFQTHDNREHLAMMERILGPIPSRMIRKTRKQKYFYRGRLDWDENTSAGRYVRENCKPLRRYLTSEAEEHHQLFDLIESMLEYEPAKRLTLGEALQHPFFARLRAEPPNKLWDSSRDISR

Dual specificity protein kinase CLK1, sequence (P49759 whole entry): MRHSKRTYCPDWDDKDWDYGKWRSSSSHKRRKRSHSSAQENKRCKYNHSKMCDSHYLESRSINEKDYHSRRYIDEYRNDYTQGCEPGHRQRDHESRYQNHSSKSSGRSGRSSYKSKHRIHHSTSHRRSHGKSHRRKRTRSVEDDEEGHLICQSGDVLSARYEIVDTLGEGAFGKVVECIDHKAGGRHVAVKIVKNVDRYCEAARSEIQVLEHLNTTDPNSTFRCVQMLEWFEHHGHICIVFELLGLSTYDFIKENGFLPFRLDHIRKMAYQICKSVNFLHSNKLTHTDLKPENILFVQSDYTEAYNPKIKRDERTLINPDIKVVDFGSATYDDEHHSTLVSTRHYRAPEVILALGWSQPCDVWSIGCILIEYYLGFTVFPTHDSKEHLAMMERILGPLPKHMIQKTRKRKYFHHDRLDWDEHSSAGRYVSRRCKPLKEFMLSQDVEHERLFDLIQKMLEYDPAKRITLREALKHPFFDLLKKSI
Dual specificity protein kinase CLK4, sequence (Q9HAZ1 whole entry): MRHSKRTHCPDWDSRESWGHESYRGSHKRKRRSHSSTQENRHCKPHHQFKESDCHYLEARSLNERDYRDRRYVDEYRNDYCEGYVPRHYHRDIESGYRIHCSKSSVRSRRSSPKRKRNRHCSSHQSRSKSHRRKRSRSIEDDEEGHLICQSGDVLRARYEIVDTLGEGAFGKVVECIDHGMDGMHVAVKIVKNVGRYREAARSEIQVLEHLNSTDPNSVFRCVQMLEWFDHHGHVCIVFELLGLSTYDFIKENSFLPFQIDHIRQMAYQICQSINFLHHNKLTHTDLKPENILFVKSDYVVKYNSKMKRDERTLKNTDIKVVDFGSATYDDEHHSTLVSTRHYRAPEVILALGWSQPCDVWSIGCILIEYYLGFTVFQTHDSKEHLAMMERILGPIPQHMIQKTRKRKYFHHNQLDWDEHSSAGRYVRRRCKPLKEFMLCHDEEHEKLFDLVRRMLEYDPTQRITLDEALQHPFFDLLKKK

SMILES	IC50 [1]	IC50 [2]	IC50 [3]	IC50 [4]	IC50 [5]	IC50 [6]	IC50 [7]	IC50 [8]	IC50 [9]	IC50 [10]	IC50 [11]	IC50 [12]
COC[C@@H](CC(C)C)NC1=N/C(=C\c2ccc3ncsc3n2)C(=O)N1	0.0336 µM	0.0264 µM	0.0365 µM	0.085 µM	> 10 µM	> 10 µM	0.219 µM	4.36 µM	1.38 µM	4.78 µM	4.27 µM	
CC(C)C[C@@H](CO)NC1=N/C(=C\c2ccc3ncsc3c2)C(=O)N1	0.0387 µM				> 10 µM	> 10 µM	0.474 µM	2.84 µM	0.493 µM	5.18 µM	8.165 µM	
COC[C@@H](CC(C)C)NC1=N/C(=C\c2ccc3[nH]ncc3c2)C(=O)N1C		0.166 µM	0.196 µM	0.134 µM								
COC[C@@H](CC(C)C)NC1=N/C(=C\c2ccc3c(c2)ncn3C)C(=O)N1C	> 10 µM	> 10 µM	> 10 µM	> 10 µM								
COC[C@@H](CC(C)C)NC1=N/C(=C\c2ccc3c(c2)ncn3C)C(=O)N1	> 10 µM	> 10 µM	> 10 µM	> 10 µM								
COC[C@@H](CC(C)C)NC1=N/C(=C\c2ccc3nn(C)cc3c2)C(=O)N1	0.191 µM			0.0783 µM								
COC[C@@H](CC(C)C)NC1=N/C(=C\c2ccc3ncn(C)c3c2)C(=O)N1C	0.0376 µM											
COC[C@@H](CC(C)C)NC1=N/C(=C\c2ccc3nnsc3c2)C(=O)N1C	0.734 µM	0.861 µM	0.95 µM	0.751 µM								
COC[C@@H](CC(C)C)NC1=N/C(=C\c2ccc3c(c2)CCO3)C(=O)N1C		0.578 µM	0.488 µM	0.17 µM								
COC[C@@H](CC(C)C)NC1=N/C(=C\c2ccc3c(ccn3C)c2)C(=O)N1C	> 10 µM	> 10 µM	> 10 µM	> 10 µM								
COC[C@@H](CC(C)C)NC1=N/C(=C\c2ccc3[nH]ccc3c2)C(=O)N1C		> 10 µM	3.93 µM									
COC[C@@H](CC(C)C)NC1=N/C(=C\c2ccc3c(cnn3C)c2)C(=O)N1C	0.408 µM		0.399 µM									
COC[C@@H](CC(C)C)NC1=N/C(=C\c2ccc3scnc3c2)C(=O)N1C	> 10 µM	> 10 µM	> 10 µM	> 10 µM								
CC(C)C[C@H](CO)NC1=N/C(=C\c2ccc3ncsc3c2)C(=O)N1	0.0139 µM				> 10 µM	> 10 µM	0.461 µM	0.635 µM	0.31 µM	0.51 µM	2.32 µM	
COC[C@@H](CC(C)C)NC1=N/C(=C\c2ccc3ncsc3c2)C(=O)N1C1CCCCC1	> 10 µM	4.91 µM		> 10 µM	> 10 µM	> 10 µM	> 10 µM	3.97 µM		> 10 µM	> 10 µM	> 10 µM
COC[C@@H](CC(C)C)NC1=N/C(=C\c2ccc3[nH]cnc3c2)C(=O)N1	0.104 µM	0.0412 µM	0.0766 µM	1.08 µM								
O=C1NC(Nc2ccccc2)=N/C1=C\c1ccc2c(c1)OCO2		0.01 µM				> 10 µM	5.84 µM			0.507 µM	1.544 µM	
COC[C@@H](CC(C)C)NC1=N/C(=C\c2ccc3nc(C)sc3c2)C(=O)N1C	0.496 µM	0.673 µM	0.511 µM									
COC[C@@H](CC(C)C)NC1=N/C(=C\c2cnc3ncsc3c2)C(=O)N1	> 10 µM	> 10 µM			> 10 µM	> 10 µM	> 10 µM	> 10 µM		> 10 µM	> 10 µM	> 10 µM
